Measured values published in PubChem BioAssay (NCI).
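Interpolation was linear, between the two tested concentrations surrounding the appropriate level; five concentrations were tested over 48 hours in 96-well plates. The concentration for 50% growth inhibition is given as GI50. Definition used: TGI = concentration required for complete inhibition of growth.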

What was measured:
Experiment in all cases: NCI anticancer screen, dose series, 48 h
A498 renal = tested on: A498 renal
MALME-3M melanoma = tested on: MALME-3M melanoma
NCI-H460 lung = tested on: NCI-H460 lung
SF-539 CNS = tested on: SF-539 CNS
SNB-19 CNS = tested on: SNB-19 CNS
UACC-257 melanoma = tested on: UACC-257 melanoma
BT-549 breast = tested on: BT-549 breast
MCF7 breast = tested on: MCF7 breast
NCI-H522 lung = tested on: NCI-H522 lung
T-47D breast = tested on: T-47D breast

| Compound | TGI (A498 renal) | TGI (MALME-3M melanoma) | TGI (NCI-H460 lung) | TGI (SF-539 CNS) | TGI (SNB-19 CNS) | TGI (UACC-257 melanoma) | GI50 (A498 renal) | GI50 (BT-549 breast) | TGI (BT-549 breast) | GI50 (MALME-3M melanoma) | GI50 (MCF7 breast) | TGI (MCF7 breast) | GI50 (NCI-H460 lung) | GI50 (NCI-H522 lung) | TGI (NCI-H522 lung) | GI50 (SF-539 CNS) | GI50 (SNB-19 CNS) | GI50 (UACC-257 melanoma) | GI50 (T-47D breast) | TGI (T-47D breast) |
| --- | --- | --- | --- | --- | --- | --- | --- | --- | --- | --- | --- | --- | --- | --- | --- | --- | --- | --- | --- | --- |
| O=C(NCCCOC(=O)CCCCCCCCC(=O)OCCCNC(=O)NC(=O)c1c[nH]c(=O)[nH]c1=O)NC(=O)c1c[nH]c(=O)[nH]c1=O | > 100 µM | > 100 µM | > 100 µM | > 100 µM | > 100 µM | > 100 µM | – | – | – | – | – | – | – | – | – | – | – | – | – | – |
| CN1N=CSC12C(=O)N(c1ccccc1)C(=O)N2c1ccccc1 (stereo not drawn) | > 100 µM | > 100 µM | > 100 µM | > 100 µM | > 100 µM | > 100 µM | – | – | – | – | – | – | – | – | – | – | – | – | – | – |
| CCOC(=O)Oc1c(OC)cc(C(=O)c2ccc(OC)c(O)c2OC)cc1OC | 17 µM | > 100 µM | > 100 µM | 5.83 µM | > 100 µM | > 100 µM | 3.19 µM | 0.465 µM | 6.97 µM | 0.686 µM | 0.516 µM | > 100 µM | 1.78 µM | 0.311 µM | 1.99 µM | 0.637 µM | 0.821 µM | > 100 µM | – | – |
| C/C=C/C(C#N)O[Si](C)(C)C (stereo not drawn) | > 100 µM | > 100 µM | > 100 µM | > 100 µM | > 100 µM | > 100 µM | – | – | – | – | – | – | – | – | > 100 µM | – | – | – | – | – |
| COc1cc(Cl)cc(=O)c(O)c1OC | > 100 µM | > 100 µM | > 100 µM | > 100 µM | > 100 µM | > 100 µM | – | – | – | – | – | – | – | – | > 64.3 µM | – | – | – | – | – |
| CCOC(=O)NC(=O)c1cn(CCN2CCN(C(=O)NCCCCCCNC(=O)N3CCN(CCn4cc(C(=O)NC(=O)OCC)c(=O)[nH]c4=O)CC3)CC2)c(=O)[nH]c1=O | > 100 µM | > 100 µM | > 100 µM | > 100 µM | > 100 µM | > 100 µM | – | – | – | – | – | – | – | – | > 100 µM | – | – | – | – | – |
| Cn1ccnc1CCc1c(Cl)cccc1Cl | > 100 µM | > 100 µM | > 100 µM | > 100 µM | – | > 100 µM | – | – | – | – | – | – | – | – | > 100 µM | – | – | – | – | – |
| Cc1c(OC(C)C(=O)O)ccc2c(-c3ccccc3)cc(=O)oc12 (stereo not drawn) | > 100 µM | > 100 µM | > 100 µM | > 100 µM | > 100 µM | > 100 µM | – | – | – | – | – | – | – | – | > 100 µM | – | – | – | – | – |
| COC1=NCc2ccccc2-c2ccccc21 | – | > 100 µM | > 100 µM | > 100 µM | > 100 µM | > 100 µM | – | – | – | – | – | – | – | – | > 100 µM | – | – | – | – | – |
| COc1ccc(-c2noc(C(=O)O)c2-c2cc(OC)c(OC)c(OC)c2)cc1 | 7.02 µM | > 100 µM | > 100 µM | 20.5 µM | > 100 µM | > 100 µM | 1.43 µM | 17.9 µM | > 100 µM | 8.02 µM | 1.34 µM | > 100 µM | 2.52 µM | 1.59 µM | > 100 µM | 2.45 µM | 6.75 µM | > 100 µM | – | – |
| O=C1Nc2ccccc2C1(O)C/C(=N/O)c1ccc2ccccc2c1 (stereo not drawn) | > 100 µM | > 100 µM | > 100 µM | > 100 µM | > 100 µM | > 100 µM | – | – | – | – | – | – | – | – | > 100 µM | – | – | – | – | – |
| CCc1c(C#N)c(=O)[nH]c(=O)n1CCN1CCN(C(=O)NCCCCCCNC(=O)N2CCN(CCn3c(CC)c(C#N)c(=O)[nH]c3=O)CC2)CC1 | > 100 µM | – | > 100 µM | > 100 µM | > 100 µM | > 100 µM | – | – | – | – | – | – | – | – | – | – | – | – | – | – |
| IC[P+]1(c2ccccc2)CCCC1 | 88.6 µM | > 100 µM | 76.9 µM | > 100 µM | > 100 µM | > 100 µM | – | – | – | – | – | – | – | – | 21.6 µM | – | – | – | – | – |
| COc1cccc(-c2nc3cc(NC(=O)c4ccc(Cl)c(C#N)c4)ccc3o2)c1 | – | – | 4.91 µM | 3.37 µM | > 100 µM | > 100 µM | – | – | – | – | – | – | 2.12 µM | 1.68 µM | 4.54 µM | 1.68 µM | 3.18 µM | 3.81 µM | 3.75 µM | > 100 µM |
| O=C(N/N=C/c1ccccc1O)N/N=C/c1ccccc1O | > 100 µM | > 100 µM | > 100 µM | > 100 µM | > 100 µM | > 100 µM | – | – | – | – | – | – | – | – | > 100 µM | – | – | – | – | – |
| CC[O-].CC[O-].O=C([CH-]C(=O)c1ccccc1)CCCCCCCCC(=O)[CH-]C(=O)c1ccccc1.[Ti+4] | > 100 µM | > 100 µM | > 100 µM | – | – | > 100 µM | > 100 µM | – | – | 73.6 µM | – | – | > 100 µM | > 100 µM | > 100 µM | – | – | > 100 µM | – | – |
| O=C1CC(CC(=O)C2CCCCC2=O)C(=O)N1 (stereo not drawn) | > 100 µM | > 100 µM | > 100 µM | > 100 µM | > 100 µM | > 100 µM | – | – | – | – | – | – | – | – | > 100 µM | – | – | – | – | – |
